In assay [1] the target is T1, Motilin receptor (Homo sapiens, UniProt O43193). The assay can be described thus: Antagonist activity at MLNR (unknown origin).
Assay [2] deals with T1, Motilin receptor. Description: Agonist activity at MLNR (unknown origin).
The target of assay [3] is Growth hormone secretagogue receptor type 1 (Homo sapiens, UniProt Q92847). Description: Agonist activity at GHSR (unknown origin).

The structures appear in SMILES notation.

The text below walks through data of ChEMBL document CHEMBL2311398 (J Med Chem, 2013).

Broadly, the IC50 is the concentration needed to halve the response being measured. Higher therefore signals a need for much substance. As usually defined, the Ki is a dissociation constant, usually derived from enzyme kinetics or from competition with a known ligand. One may read the EC50 as the concentration at which the effect is half-maximal. Read a high EC50 as lower potency in that assay.

T1 sequence (O43193 whole entry): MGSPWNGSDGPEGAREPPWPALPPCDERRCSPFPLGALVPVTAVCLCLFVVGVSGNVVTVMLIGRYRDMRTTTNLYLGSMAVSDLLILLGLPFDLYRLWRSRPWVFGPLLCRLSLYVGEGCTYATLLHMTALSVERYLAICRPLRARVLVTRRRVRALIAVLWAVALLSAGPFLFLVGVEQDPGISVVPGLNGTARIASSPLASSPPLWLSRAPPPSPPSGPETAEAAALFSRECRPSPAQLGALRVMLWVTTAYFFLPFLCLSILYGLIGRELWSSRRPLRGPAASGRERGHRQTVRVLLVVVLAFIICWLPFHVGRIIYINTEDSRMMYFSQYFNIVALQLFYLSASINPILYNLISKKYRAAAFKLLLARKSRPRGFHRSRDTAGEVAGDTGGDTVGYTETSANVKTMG
Sequence of Growth hormone secretagogue receptor type 1 (Q92847 whole entry): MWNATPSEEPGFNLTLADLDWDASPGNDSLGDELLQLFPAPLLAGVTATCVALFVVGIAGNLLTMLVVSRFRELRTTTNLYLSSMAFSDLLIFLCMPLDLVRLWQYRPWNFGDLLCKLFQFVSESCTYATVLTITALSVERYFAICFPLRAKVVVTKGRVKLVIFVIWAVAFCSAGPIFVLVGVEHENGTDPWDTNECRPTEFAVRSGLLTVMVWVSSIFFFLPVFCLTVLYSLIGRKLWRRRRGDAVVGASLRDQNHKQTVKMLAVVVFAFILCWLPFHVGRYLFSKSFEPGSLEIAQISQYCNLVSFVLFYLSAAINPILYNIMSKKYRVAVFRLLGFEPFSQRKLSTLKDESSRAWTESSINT

Turning to `C[C@@H]1CN(Cc2ccc(-c3cccnc3C(=O)N3CCC(Nc4ccc(F)cc4)CC3)cc2)C[C@H](C)N1`, in assay [1], the IC50 was 3.98 nM.
In assay [2], `CCNC(=O)[C@H](Cc1ccc(O)c(C(C)(C)C)c1)C(N)C(=O)[C@H](C(C)C)N(C)C(=O)[C@H](Cc1ccc(F)cc1)NC` (some centres undefined) showed a Ki of 2.63 nM.
As for `COc1cccc(CCN(Cc2ccccc2-c2ccc(CN3C[C@@H](C)N[C@@H](C)C3)cc2)C(=O)NC2CCCCC2)c1`, the EC50 in assay [3] is 126 nM.
`CC[C@H]1OC(=O)[C@H](C)[C@@H](O[C@H]2C[C@@](C)(OC)[C@@H](O)[C@H](C)O2)[C@H](C)[C@@H](O[C@@H]2O[C@H](C)C[C@H](N(C)C(C)C)[C@H]2O)[C@]2(C)CC(C)=C(O2)[C@H](C)C(=O)[C@]1(C)OC`: the IC50 in assay [1] is 3.98 nM.
